Results from ChEMBL document CHEMBL5150058, “Synthesis and biological evaluation of novel photo-clickable adenosine and cyclic ADP-ribose analogs: 8-N3-2'-O-propargyladenosine and 8-N3-2'-O-propargyl-cADPR” (Bioorg Med Chem, 2022).
Activity calls are given as the source filed them. The rule behind the calls is not given here.

Experiments:
U2OS = test: Agonist activity at cADPR binding protein in human U2OS cells expressing GCaMP6M assessed as increase in Ca2+ release at 30 uM by confocal Ca2+ imaging analysis; assay type: cell-based; settings: filed as agonist
[1] = Agonist activity at cADPR binding protein in sea urchin egg homogenate assessed as increase in Ca2+ release by Fluo-3 based fluorescence assay; assay type: tissue-based, Strongylocentrotus purpuratus
[2] = Antagonist activity at cADPR binding protein in sea urchin egg homogenate assessed as inhibition of cADPR-induced Ca2+ release by Fluo-3 based fluorescence assay; assay type: tissue-based, Strongylocentrotus purpuratus
[3] = system: Strongylocentrotus purpuratus; test: Agonist activity at cADPR binding protein in sea urchin egg homogenate assessed as increase in Ca2+ release at 100 uM by Fluo-3 based fluorescence assay relative to control; assay type: tissue-based

Nc1c2ncn3c2nc[n+]1[C@@H]1O[C@H](COP(=O)([O-])OP(=O)(O)OC[C@H]2O[C@@H]3[C@H](O)[C@@H]2O)[C@@H](O)[C@H]1O
Activity (U2OS): Active
EC50 [1]: 110 nM

C#CCO[C@@H]1[C@H](O)[C@H]2COP(=O)(O)OP(=O)([O-])OC[C@H]3O[C@H]([C@H](O)[C@@H]3O)[n+]3cnc4c(ncn4[C@@H]1O2)c3N
EC50 [1]: 8460 nM

[N-]=[N+]=Nc1nc2c(N)[n+]3cnc2n1[C@@H]1O[C@H](COP(=O)(O)OP(=O)(O)OC[C@H]2O[C@@H]3[C@H](O)[C@@H]2O)[C@@H](O)[C@H]1O
IC50 [2]: 7 nM

C#CCO[C@@H]1[C@H](O)[C@H]2COP(=O)(O)OP(=O)(O)OC[C@H]3O[C@H]([C@H](O)[C@@H]3O)[n+]3cnc4c(nc(N=[N+]=[N-])n4[C@@H]1O2)c3N
Activity [3]: < 10%
